Measured values taken from US5196447A, “Neristatin 1” (Arizona Board of Regents, a body Corporate of The State of …, priority 1991, dated 1993).
Values after ≈ are worked out from the molar mass of the structure shown.

Columns and labels:
[1] = tested on: protein kinase C; test: Usual phorbol ester binding conditions using reconstitution of protein kinase C in phosphatidylserine
[2] = molecular target: protein kinase C; test: Competition for [26-3H] bryostatin 4 binding to protein kinase C (phosphatidylserine/TRITON X-100 mixed micelles)
[3] = tested on: P388 cell line; test: Activity against the P388 lymphocytic leukemia cell line; assay type: cell-based, murine
[4] = Stability in recrystallization attempts / various solvents; assay type: physicochemical

## COC(=O)C=C1CC2C=CC(C)(C)C(=O)C34OC(=O)CC3CC(CC(O)C(C)OC(=O)CC(O)CC3CC(OC(=O)C(C)(C)C)C(C)(C)C(O)(CC(C1)O2)O3)O4 (stereo not shown) [neristatin 1]
[1]; relative to phorbol 12,13-dibutyrate
  affinity for protein kinase C compared with phorbol 12,13-dibutyrate: an order of magnitude less
[1]; usual phorbol ester binding conditions, reconstitution in phosphatidylserine, neristatin 1: mean±sem, 3 experiments
  Ki: 21.2 ± 1.3 nM
[2]; phosphatidylserine/TRITION X-100 mixed micelles, competition for [26-3H] bryostatin 4, neristatin 1: mean±SEM, 4 experiments
  Ki: 124 ± 10 nM
[2]; relative to bryostatin 4
  affinity for protein kinase C compared with bryostatin 4: at least two orders of magnitude less
[3]; Mus musculus, read-out: ED50 (the source's name)
  IC50: 10 µg/mL (≈ 12.6 µM)
[3]; relative to bryostatin 5
  potency compared to bryostatin 5: reduced but still significant potency
[4]
  stability of small samples in various solvents: rapidly degraded in various solvents
